Results published in publication PMC6006285, “Specific stereochemistry of OP-1074 disrupts estrogen receptor alpha helix 12 and confers pure antiestrogenic activity” (Nature Communications, 2018).
Values joined by “and” are separate entries in the source; they are usually repeats but may differ in a detail not shown here. Equal entries are not always repeated. Where two headings read alike, the source gives them in different places.

Columns and labels:
AP = test system: AP; set-up: method as in Holinka et al.; conditions: ref Holinka et al.; cited from earlier work
uterus = conditions: cited from earlier work
MCF-7 cells = experiment: Inhibition of E2-stimulated proliferation of MCF-7 cells; format: cell-based; conditions: Homo sapiens
[1] = test system: AP activity in Ishikawa uterine cells; experiment: Alkaline phosphatase (AP) assay, agonist mode (absence of E2); format: cell-based, human; conditions: for Induction of AP activity (% E2): Maximum AP activity observed relative to positive control, 500 pM E2, means of n independent experiments ±s.d.; for Maximal AP activity in agonist mode relative to E2 control: absence of E2, normalized to 500 pM E2, representative experiment (Fig. 2a)
Description: (§1) Our primary screen to distinguish pure antiestrogens from SERMs was induction of alkaline phosphatase (AP) activity in Ishikawa uterine cells. […] The reference SERM used in our screen was endoxifen (N-desmethyl-4-hydroxytamoxifen), the most abundant bioactive metabolite of tamoxifen.
(§2) Shown is a representative figure analyzed and presented as above.
(§3) At least 4 h later cells were treated with antiestrogens and media was diluted to 2.5% stripped FBS. Cells were incubated for 3 days, media removed and plates frozen at −80 °C. Thawed plates were incubated with a chromogenic substrate of AP, p-nitrophenyl phosphate (ThermoFisher Scientific, #36721), for 40–60 min at 40 °C, and absorbance read at 405 nm on the Varioskan Lux multimodal plate reader (ThermoFisher Scientific, #VLBL00D0).

ERα = molecular target: T1, ERα (Homo sapiens, UniProt P03372); experiment: ERα protein levels by immunoblotting; format: cell-based; conditions: MCF-7 cells, 100 nM ligand, 24 h, means of n experiments ±s.d.
T1 construct: endogenous in cells
T1 sequence (P03372 1-595): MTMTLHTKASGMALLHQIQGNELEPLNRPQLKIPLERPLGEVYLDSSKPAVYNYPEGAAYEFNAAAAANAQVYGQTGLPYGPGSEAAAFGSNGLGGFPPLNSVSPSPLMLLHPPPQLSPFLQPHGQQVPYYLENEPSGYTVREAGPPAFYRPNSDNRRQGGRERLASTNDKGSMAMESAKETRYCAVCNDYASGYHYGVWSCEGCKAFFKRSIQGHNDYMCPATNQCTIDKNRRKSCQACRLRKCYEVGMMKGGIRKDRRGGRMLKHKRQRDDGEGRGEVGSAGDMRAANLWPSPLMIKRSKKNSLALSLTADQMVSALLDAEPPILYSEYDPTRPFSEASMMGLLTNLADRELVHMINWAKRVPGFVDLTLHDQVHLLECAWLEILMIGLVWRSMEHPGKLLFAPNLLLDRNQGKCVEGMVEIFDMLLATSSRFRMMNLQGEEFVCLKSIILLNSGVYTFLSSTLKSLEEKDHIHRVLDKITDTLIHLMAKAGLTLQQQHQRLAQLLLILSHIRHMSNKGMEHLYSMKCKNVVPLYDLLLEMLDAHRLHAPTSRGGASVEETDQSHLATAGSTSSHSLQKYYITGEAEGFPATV
Description: However, it is conceivable that under some clinical contexts SERD activity may still be a desirable feature by reducing the number of functional receptors in tumors.
Imaging was performed on FluorChem Imager by Alpha Innotech. […] An uncropped image of the immunoblot is shown in Supplementary Fig. 5.

[2] = test system: estrogen responsive reporter gene, ERE-tk109-Luc, in MCF-7 cells; experiment: Inhibition of E2-stimulated transcription of ERE-tk109-Luc reporter gene in MCF-7 cells; format: cell-based; conditions: Homo sapiens
[3] = test system: E2-stimulated AP activity in Ishikawa cells; experiment: Alkaline phosphatase (AP) assay, antagonist mode (presence of 500 pM E2); format: cell-based, human; conditions: for Antagonism of E2-stimulated AP activity: 500 pM E2
Description: as §1, §2, §3

[4] = molecular target: T2, Estrogen Receptor α LBD (ERα) (Homo sapiens, UniProt P03372); experiment: Competitive ligand binding assay with [3H]-E2; conditions: for IC50: 10 nM [3H]-E2 tracer, 2 nM biotinylated ERα LBD, representative experiment
T2 construct: 2 nM biotinylated Estrogen Receptor α LBD (ERα) was incubated; biotin (biotinylated)
T2 sequence (P03372 311-547 limits assumed): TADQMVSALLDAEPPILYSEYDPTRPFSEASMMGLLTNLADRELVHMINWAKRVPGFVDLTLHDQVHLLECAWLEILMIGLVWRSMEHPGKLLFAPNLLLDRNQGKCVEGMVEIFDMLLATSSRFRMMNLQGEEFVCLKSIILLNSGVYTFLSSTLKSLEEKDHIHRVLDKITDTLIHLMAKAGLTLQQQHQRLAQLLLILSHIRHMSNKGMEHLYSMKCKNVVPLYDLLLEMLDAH
Description: Experimental data points are mean + /− s.e.m. of triplicate samples in a representative experiment. […] Experimental data points are mean + /− s.d. of triplicate samples in a representative experiment
Triplicate reactions were vortexed and 100 μL was added in triplicate to a 96-well streptavidin flashplate (Perkin Elmer #SMP103001PK), which incubated overnight at 4 °C prior to reading.

CAMA-1 cells = experiment: Inhibition of E2-stimulated proliferation of CAMA-1 cells; format: cell-based; conditions: Homo sapiens, CAMA-1, 192 h; read-out: CAMA-1 IC50 proliferation (Fig. 3c)
Description: Shown is a representative figure analyzed and presented as above. d, Western blot of destabilization of ERα protein by OP-1074.
Proliferation was measured using CyQuant fluorescent DNA-binding dye kit (ThermoFisher Scientific, #C7026) using 1:200 GR dye and reading fluorescence at 485 nm excitation and 538 nm emission on the Varioskan Lux multimodal plate reader.

[5] = test system: uterus of ovariectomized mice; set-up: method as in PMID 15968821; conditions: cited from earlier work
MCF7/HER2/neu tumors = test system: MCF7/HER2/neu tumors
Description: MCF7/HER2/neu cells were grown in culture and implanted into 6–7 week athymic ovariectomized female nu/nu mice (Taconic Biosciences). To stimulate tumor growth, 0.18 mg estradiol 90 day release pellets (Innovative Research) were implanted along with cells. […] Tumor volume and bodyweight were measured twice weekly. At end of the study animals were euthanized, tumors resected and snap frozen in liquid nitrogen, and uteri were resected, weighed, and fixed in 10% formalin.

[6] = MCF7, read-out: IC50 proliferation
[7] = MCF7, 24 h, read-out: IC50 transcription
[8] = MCF7, 168 h, read-out: MCF-7 IC50 proliferation (Fig. 3b)
[9] = MCF7, 22 h, read-out: IC50 inhibition of E2-stimulated transcription (Fig. 3a)
[10] = number of 10 tumors at end of study, OP-1074 100 mg/kg oral twice daily, fulvestrant 100 mg/kg subcutaneous daily

Structure (SMILES) | IC50 (MCF-7 cells; [6]) [nM] | Induction of AP activity (% E2) [1] | Relative ERα protein levels (% vehicle) (ERα) | IC50 [2, 7] [nM] | IC50 (MCF-7 cells; [8]) [nM] | Maximal AP activity in agonist mode relative to E2 control ([1]; 3 days) [%] | IC50 [2, 9] [nM] | IC50 (CAMA-1 cells) [nM] | also measured
CC/C(=C(\c1ccc(O)cc1)c1ccc(OCCN(C)C)cc1)c1ccccc1 [4-OHT, (Z)-4-trans-hydroxytamoxifen] | – | – | – | – | – | – | – | – | Activation of AP (AP): 1.3 fold
CC/C(=C(/c1ccc(/C=C/C(=O)O)cc1)c1ccc2[nH]ncc2c1)c1ccc(F)cc1Cl [GDC-0810] | – | – | – | – | – | – | – | – | Agonist effects in the uterus (uterus): mild to moderate agonist effects in the uterus
CC1=C(c2ccc(O)cc2)C(c2ccc(OCCN3CCC[C@H]3C)cc2)Oc2cc(O)ccc21 (some centres unmarked) [OP-1039] | 6.4 ± 1 | 49% ± 18 (n = 8) % E2 | 119% ± 13 (n = 6) % vehicle | 0.5 ± 0.1 | – | – | – | – | –
CC1=C(c2ccc(O)cc2)C(c2ccc(OCCN3CCC[C@@H]3C)cc2)Oc2cc(O)ccc21 (some centres unmarked) [OP-1047] | 5.5 ± 1.4 | 136% ± 15 (n = 4) % E2 | 319% ± 100 (n = 5) % vehicle | 1.3 ± 0.4 | – | – | – | – | –
CC1=C(c2ccc(O)cc2)[C@H](c2ccc(OCCN3CC[C@H](C)C3)cc2)Oc2cc(O)ccc21 [OP-1154] | 6 ± 1.1 | 40% ± 6.5 (n = 3) % E2 | 123% ± 22 (n = 4) % vehicle | 5.6 ± 2.1 | 6.9 | 39 | 4 | 8.1 | Antagonism of E2-stimulated AP activity ([3]; Ishikawa cells): did not completely antagonize E2-stimulated AP activity; IC50 [4]: 14.3 ± 0.06 nM; Binding affinity relative to OP-1074 and OP-1156 (fold lower) ([4]; [3H]-E2 competitive binding): approximately 2 fold
CC1=C(c2ccc(O)cc2)[C@H](c2ccc(OCCN3CCCC3)cc2)Oc2cc(O)ccc21 [OP-1156] | 5.2 ± 1.3 | 40% ± 7.8 (n = 3) % E2 | 152% ± 31 (n = 4) % vehicle | 5.9 ± 2.1 | 6.3 | 40 | 4 | 4.2 | IC50 [4]: 6 nM and 6.13 nM; Uterine wet weight [5]: increased uterine wet weight
CCNCCc1ccc(CN(CC)c2cc(OC)ccc2[C@@H]2CCc3cc(O)ccc3C2)cc1 [RAD1901] | – | – | – | – | – | – | – | – | Agonist effects in the uterus (uterus): mild to moderate agonist effects in the uterus
CC/C(=C(\c1ccc(O)cc1)c1ccc(OCCNC)cc1)c1ccccc1 [endoxifen, (Z)-4-hydroxy-N-desmethyltamoxifen, reference compound] | 13 ± 2.2 | 73% ± 10 (n = 8) % E2 | 139% ± 34 (n = 20) % vehicle | 6.3 ± 1.3 | – | 82 | – | – | AP activity remaining in antagonist mode ([3]; Ishikawa cells, 500 pM E2, 1 µM drug): 58%
C[C@]12CC[C@@H]3c4ccc(O)cc4C[C@@H](CCCCCCCCC[S+]([O-])CCCC(F)(F)C(F)(F)F)[C@H]3[C@@H]1CC[C@@H]2O (some centres unmarked) [fulvestrant, reference compound] | 2.5 ± 0.3 | 0.05% ± 2.7 (n = 58) % E2 | – | 2 ± 0.2 | 2.2 | – | 6.3 | 1.9 | IC50 ([3]; Homo sapiens, Ishikawa, 72 h, read-out: IC50 inhibition of E2-stimulated AP activity): 3 nM; Antagonism of E2-stimulated AP activity ([3]; Ishikawa cells): completely inhibited E2-stimulated AP activity; AP activity in agonist mode ([1]; 3 days, absence of E2, all doses tested): lacked any AP activity; Tumors shrunk / growth inhibited by >50% (MCF7/HER2/neu tumors; [10]): 5/10; Tumors shrunk >80% (MCF7/HER2/neu tumors; [10]): 1/10
CC/C(=C(\c1ccccc1)c1ccc(OCCN(C)C)cc1)c1ccccc1 [tamoxifen, reference compound] | – | – | – | – | – | – | – | – | Tumors shrunk below the initial tumor size (MCF7/HER2/neu tumors; end of study, 100 mg/kg tamoxifen daily by oral gavage): half
